The values that follow come from patent publication US10336822B2, “Early marker of proteinuria in patients treated with an anti-VEGF treatment” (Mayo Foundation for Medical Education and Research, priority 2009, dated 2019).

The nature of data set [1]: Proteinuria in patients on anti-VEGF therapy. The class given is in vivo, human. How it is done:
The following was performed to determine whether podocyturia is present in patients who, while undergoing anti-VEGF therapy, develop proteinuria (Table 1). In addition, urinary podocyte excretion was compared among patients on anti-VEGF therapy with proteinuria ranging from 101 to 9720 mg/d (Table 1).

A further data set deals with urinary podocytes. The data set is described as follows: Podocyturia assay: urinary cells stained for podocin immunoreactivity. Type of data set: in vivo, human. Conditions: for Cells/HPF (urinary podocytes): 400 × high power field, individual cancer patients on anti-VEGF therapy, Table 1. How it is done: A random urine sample (25-50 mL each) was centrifuged for 8 minutes at 700 g at room temperature. The pellets were rinsed twice with […]. Next, the pellets were resuspended in Dulbecco's modified eagle's medium (DMEM) F-12 medium with 10% fetal bovine serum that was supplemented with antibiotics for the prevention of bacterial contamination. A one-milliliter aliquot was plated on a collagen-coated tissue culture slide, which was followed by overnight incubation at 37° C. in 5% CO2. The next day, the media were removed, followed by two phosphate-buffered saline solution washes. The slide was fixed with 1 mL of ice cold methanol for 10 minutes at −20° C. The slide was incubated with antibodies to podocin (dilution, 1:200). After being washed with phosphate-buffered saline solution, a secondary fluorescein isothiocyanate-labeled antibody was added at a dilution of 1:40 for 30 minutes. The sediment was counterstained with Hoechst nuclear stain to facilitate differentiation of whole cells from cell fragments. Coverslips were mounted with Vectashield (Vector Labs, Burlington, Calif.), and the slides were viewed with a fluorescence microscope (Leica, Germany). Nucleated, positive-staining cells were considered to be podocytes. A renal pathologist, who was blinded to the clinical diagnosis and laboratory findings, evaluated each sample to determine the number of cells that were present and the percentage of cells that were stained for podocin.

For data set [2], the system named is renal cell carcinoma, clear cell type. The data set is described as follows: Clinical course of a renal cell carcinoma patient on sunitinib therapy. Type of data set: in vivo, human. The conditions noted are these: person, four months into therapy. From the text: They subsequently underwent a right radical nephrectomy and retroperitoneal lymphadenectomy.
Data set [3] is described as follows: Renal function (creatinine, GFR) in patients on anti-VEGF therapy. The conditions noted are these: for GFR: individual cancer patients on anti-VEGF therapy, Table 1.

Several values for one entry are separate records, joined by “and”; a condition that tells them apart may be missing. Identical values can stand only once. Some results are limits rather than exact numbers.

Take bevacizumab: in data set [1] (human, in vivo), the “Proteinuria (dipstick)” value was 1 + dipstick.

For `CCN(CC)CCNC(=O)c1c(C)[nH]c(/C=C2\C(=O)Nc3ccc(F)cc32)c1C` [Sunitinib], the “Cells/HPF (urinary podocytes)” value with urinary podocytes is given as above 3 Cells/HPF. Also, the “presence of urinary podocytes” value in the data set on urinary podocytes (person, after seven months of therapy, FIG. 1) is given as “presence of urinary podocytes was confirmed”. Moreover, in data set [2], the Additional side effects entry is “hypertension, hand and foot syndrome, and drug-induced hypothyroidism”. For the same compound, in data set [1] (human, in vivo), the Proteinuria turned out to be 2112 mg/day, the “predicted 24 hour protein” value is 931 mg and the “protein in 24 hours” value was determined as 467 mg. For the same compound, the “kidney function, as per creatinine measurements” value in data set [3] (after the regimen was changed and the dose was decreased) was “improved”. This compound came in with a GFR in data set [3] of 43. Also, the creatinine in data set [3] (person, after seven months of therapy) is listed as 1.3. The peak creatinine in data set [3] (person, four months into therapy) was determined as 1.5.

In the case of `CNC(=O)c1cc(Oc2ccc(NC(=O)Nc3ccc(Cl)c(C(F)(F)F)c3)cc2)ccn1` [S/nib, sorafenib], in the data set on urinary podocytes, the “Cells/HPF (urinary podocytes)” value was >9 Cells/HPF and 1 Cells/HPF. Moreover, the Proteinuria in data set [1] (individual cancer patients on anti-VEGF therapy, Table 1) is 9720 mg/day and 101 mg/day. The GFR in data set [3] is 70 and 39.
